# Laboratory results published in patent US7354935B2, “Radiolabeled neurokinin-1 receptor antagonists” (Merck & Co. Inc., priority 2002, dated 2008).
# Assays:
# NK1 receptor = biological target: T1, NK1 receptor (Macaca mulatta, UniProt F7GQV6); assay: Chase study with an unlabelled NK1 antagonist, PET regions of interest (chaseability); format: in vivo, rhesus monkey; conditions: for Remaining Specific Binding in Rhesus Monkey after 1 mpk Chase at 180 Minutes with an NK1 Antagonist: striatum minus cerebellum
# T1 construct: from tissue; host or cells: brain (striatum and other regions) of a living rhesus monkey, PET imaging
# T1 sequence (F7GQV6 1-407): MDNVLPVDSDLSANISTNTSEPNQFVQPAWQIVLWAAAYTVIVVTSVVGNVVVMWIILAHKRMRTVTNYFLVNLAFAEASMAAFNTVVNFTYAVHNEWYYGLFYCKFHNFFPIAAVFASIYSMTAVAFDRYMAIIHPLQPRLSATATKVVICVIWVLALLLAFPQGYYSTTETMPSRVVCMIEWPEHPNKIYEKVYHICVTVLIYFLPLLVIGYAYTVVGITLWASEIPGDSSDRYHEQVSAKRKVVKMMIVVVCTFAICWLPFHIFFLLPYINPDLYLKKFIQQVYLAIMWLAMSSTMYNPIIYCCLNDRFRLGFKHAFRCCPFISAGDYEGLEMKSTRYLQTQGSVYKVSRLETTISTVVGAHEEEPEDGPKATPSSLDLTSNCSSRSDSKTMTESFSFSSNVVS
# Description: A bolus of an unlabelled NK1 antagonist was administered 180 minutes after a bolus injection of either tracer. From the resulting images, regions of interest were drawn to determine the amount of radioactivity present in different brain regions. […] Also, using the 70% level of chase as a comparison (30% remaining specific binding), the fluoroethoxy compound reaches this level ˜50 minutes before the dideuterofluoromethoxy analog reaches this same level. Because the fluoroethoxy compound [^18F][2-fluoroethoxy-5-(5-trifluoromethyl-tetrazol-1-yl)-benzyl]-([2S,3S]-2-phenyl-piperidin-3-yl)-amine chases from the striatum faster than the fluoromethoxy analog, a more accurate picture of what the true receptor occupancy is can be obtained using the fluoroethoxy analog.
# [1] = Percent of parent tracer remaining in monkey plasma (plasma half-life comparison, TLC/gamma counting); format: in vivo, rhesus monkey; conditions: for % parent tracer remaining in monkey plasma / Amount of tracer remaining in plasma relative to the protonated tracer: rhesus monkey; for Amount of tracer remaining in plasma relative to the protonated tracer: versus Compound A
# Description: To compare the plasma half-life of [^18F][2-fluoromethoxy-5-(5-trifluoromethyl-tetrazol-1-yl)-benzyl]-([2S,3S]-2-phenyl-piperidin-3-yl)-amine (Compound A) and [^18F][2-fluorodideuteromethoxy-5-(5-trifluoromethyl-tetrazol-1-yl)-benzyl]-([2S,3S]-2-phenyl-piperidin-3-yl)-amine (Compound B) in rhesus monkey, ˜5 mCi of each radiotracer (in saline) was injected by iv into an anesthetized monkey. At various time points, whole blood was drawn, mixed with 0.02 mL of acetonitrile and centrifuged for 3-5 minutes at 5000 rpm. A 0.02 mL aliquot of the acetonitrile extract was spotted on a 5×7 cm TLC plate along with the cold standard and developed using 60:40:0.1 ethyl acetate:methanol:triethylamine. The TLC plate was cut into four sections pertaining to the origin, to determine the amount of fluoride present, the section between the origin and where the standard eluted, to determine polar metabolites, the section where the parent compound eluted, to determine the amount of parent compound remaining, and the area between the parent compound and the solvent front for nonpolar metabolites. The TLC strips were then counted in a gamma counter to determine the number of counts for each section of TLC plate. The percentage of the total counts that were due to the remaining parent compound was determined. […] With the higher prolonged plasma levels of the deuterated tracer, more time is available for a larger specific signal to develop, and for the tracer to accumulate in brain regions that have a low receptor concentration and could be difficult to image using the protonated tracer.
# [2] = Brain levels of the tracer; format: in vivo; conditions: comparison in words
# [3] = 5 minutes after iv injection of ~5 mCi
# [4] = 15 minutes after iv injection of ~5 mCi
# [5] = 30 minutes after iv injection of ~5 mCi
# [6] = 45 minutes after iv injection of ~5 mCi
# [7] = 60 minutes after iv injection of ~5 mCi
# [8] = 120 minutes after iv injection of ~5 mCi
# [9] = 180 minutes after iv injection of ~5 mCi
Molecule,Remaining Specific Binding in Rhesus Monkey after 1 mpk Chase at 180 Minutes with an NK1 Antagonist (NK1 receptor; 195 minutes after tracer),Remaining Specific Binding in Rhesus Monkey after 1 mpk Chase at 180 Minutes with an NK1 Antagonist (NK1 receptor; 205 minutes after tracer),Remaining Specific Binding in Rhesus Monkey after 1 mpk Chase at 180 Minutes with an NK1 Antagonist (NK1 receptor; 220 minutes after tracer),"Time at which tracer begins to chase (is displaced from the receptor) after administration of the unlabelled antagonist (NK1 receptor; striatum, rhesus monkey)","Time by which the 70% level of chase (30% remaining specific binding) is reached before the dideuterofluoromethoxy analog (NK1 receptor; striatum, rhesus monkey, versus Compound B)","% parent tracer remaining in monkey plasma [1, 3]","% parent tracer remaining in monkey plasma [1, 4]","% parent tracer remaining in monkey plasma [1, 5]","% parent tracer remaining in monkey plasma [1, 6]","% parent tracer remaining in monkey plasma [1, 7]","% parent tracer remaining in monkey plasma [1, 8]","% parent tracer remaining in monkey plasma [1, 9]","Displacement from the NK1 receptor when unlabelled compounds are administered, relative to the [18F]fluoromethoxy compound (NK1 receptor; comparison in words)",Amount of tracer remaining in plasma relative to the protonated tracer ([1]; all time points examined),"Metabolic stability relative to the [18F]fluoromethoxy compound of U.S. Pat. No. 6,241,964 ([1]; comparison in words)","Plasma half-life relative to the [18F]fluoromethoxy compound of U.S. Pat. No. 6,241,964 ([1]; comparison in words)",Amount of tracer remaining in plasma relative to the protonated tracer ([1]; end of the experiment (3 hours)),Remaining Specific Binding in Rhesus Monkey after 1 mpk Chase at 180 Minutes with an NK1 Antagonist (NK1 receptor; 230 minutes after tracer),Remaining Specific Binding in Rhesus Monkey after 1 mpk Chase at 180 Minutes with an NK1 Antagonist (NK1 receptor; 270 minutes after tracer),Brain levels of the tracer relative to the [18F]fluoromethoxy compound [2]
"FC(F)(F)c1nnnn1-c1ccc(OCC[18F])c(CN[C@H]2CCCN[C@H]2c2ccccc2)c1 [Compound C, [^18F][2-fluoroethoxy-5-(5-trifluoromethyl-tetrazol-1-yl)-benzyl]-([2S,3S]-2-phenyl-piperidin-3-yl)-amine]",~85%,~55%,~30%,almost immediately,~50 minutes,,,,,,,,,,,,,,,
"FC(F)(F)c1nnnn1-c1ccc(OC[18F])c(CN[C@H]2CCCN[C@H]2c2ccccc2)c1 [Compound A, [^18F][2-fluoromethoxy-5-(5-trifluoromethyl-tetrazol-1-yl)-benzyl]-([2S,3S]-2-phenyl-piperidin-3-yl)-amine, reference compound]",,,,,,72%,55%,38%,35%,25%,16%,9%,,,,,,,,
"[^18F][2-fluoroethoxy-5-(5-trifluoromethyl-tetrazol-1-yl)-benzyl]-([2S,3S]-2-phenyl-piperidin-3-yl)-amine [Compound C]",,,,,,,,,,,,,faster,,,,,,,
"[2H]C([2H])([18F])Oc1ccc(-n2nnnc2C(F)(F)F)cc1CN[C@H]1CCCN[C@H]1c1ccccc1 [Compound B, [^18F][2-fluorodideuteromethoxy-5-(5-trifluoromethyl-tetrazol-1-yl)-benzyl]-([2S,3S]-2-phenyl-piperidin-3-yl)-amine]",~96%,~85%,,about 30 minutes,,91%,87%,75%,39%,41%,23%,20%,,more of the deuterated tracer remaining in the plasma than the protonated tracer,metabolically more stable,longer plasma half-life,twice as much,~55%,~30%,relatively higher brain levels
